Tests used:
Assay in all cases: MIC evaluation on pathogenic bacterial strains
Type in all cases: cell-based
[1] = system: Staphylococcus aureus (ATCC 25213)
From the text: (§1) In particular, the efficacy of rifamicin SV was verified by means of an evaluation of the MIC (Minimum Inhibiting Concentration) on specific pathogenic bacterial strains, such as, for example, Escherichia coli, […], Proteus vulgaris, Pseudomonas aeruginosa, Salmonella typhi and Enterobacter cloacae as shown in the following Table A.

[2] = system: Pseudomonas aeruginosa (ATCC 27853)
From the text: as §1

[3] = system: Salmonella typhi (ATCC 13331)
From the text: as §1

[4] = system: Proteus vulgaris (ATCC 13315)
From the text: as §1

[5] = system: Escherichia coli (ATCC 30218)
From the text: as §1

[6] = system: Enterobacter faecalis (ATCC 29212)
From the text: as §1

[7] = system: Enterobacter cloacae (ATCC 17446431)
From the text: as §1

rifamicin SV
MIC (Minimum Inhibiting Concentration) [1]: <0.4 µg/mL
MIC (Minimum Inhibiting Concentration) [2]: >400 µg/mL
MIC (Minimum Inhibiting Concentration) [3]: >400 µg/mL
MIC (Minimum Inhibiting Concentration) [4]: 400 µg/mL
MIC (Minimum Inhibiting Concentration) [5]: 400 µg/mL
MIC (Minimum Inhibiting Concentration) [6]: 25 µg/mL
MIC (Minimum Inhibiting Concentration) [7]: >400 µg/mL
